Kd data for 37 compounds are collected here from US8889683B2, “Substituted quinoxalines as inhibitors of fatty acid binding protein” (Merck Sharp & Dohme Corp., priority 2010, dated 2014).

Molecules are shown by their SMILES.

Sequence of FABP4 (P15090 whole entry): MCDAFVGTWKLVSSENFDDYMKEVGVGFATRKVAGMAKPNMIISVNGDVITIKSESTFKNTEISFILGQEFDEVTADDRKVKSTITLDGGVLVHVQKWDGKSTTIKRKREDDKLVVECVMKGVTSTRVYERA

The experiment addresses FABP4 (Homo sapiens, UniProt P15090). The experiment is described as follows: TdF-based ligand binding affinity (FABP inhibitory activity assay). As to conditions: TdF-based ligand binding affinity constant. The source says: Theoretical basis for TdF-based ligand binding affinity constant
The derivation of TdF-based ligand binding affinity constant (Kd) followed closely those previously formulated by Brandts and Lin, Biochemistry 29 (1990) 6927-6940. In brief, the binding constant of the ligand at the Tm is expressed as below: […]
where T0 is the midpoint of unfolding for unliganded protein and Tm is the midpoint of unfolding in presence of ligand. [LTm] is free ligand at Tm. The ΔHu and ΔCpu are the enthalpy of unfolding and heat capacity change of unfolding for the protein respectively. The ΔCPu is proportional to the size of protein and is an approximate quantity in the above equation (empirically, ΔCpu=(MW of protein/115)*14 cal/mol*K). Following algorithm derived by Mayhood et al, (Analytical Biochemistry 345 (2005) 187-197), the T0 and ΔHu can be determined separately from nonlinear regression fitting the temperature dependent protein alone curve to the following equation: […]
The nonlinear regression fitting in general readily reaches convergence by properly constraining the initial values for the fitting parameters (e.g. the initial “guess” for the ΔHu was constrained to 120 kcal/mol; initial Yn and mr, were set to 1 and zero to best represent the melting curve along the low temperature region; negative slope of −0.5 was initially chosen for mu; initial Tm was also constrained to 50° C.).
(see Brandts et al and Mayhood et al, shown above) where ΔHL (T) is the van't Hoff enthalpy of ligand binding at temperature T and ΔCpL is the heat capacity upon ligand binding. For simplicity, the ΔCpL and ΔHL (T) were set to zero and −7 kcal/mol respectively. (The ΔCpL accounts for minimal portion of total protein-ligand binding energetics and is therefore set to zero (For example, see Hossein Naghibi et al, Proc. Natl. Acad. Sci. 92, 5597-5599 (1995), where ΔCpL was estimated to ˜2% of ΔHL at 25° C. obtained from calorimetric study of binding RNase A and 2′-CMP)).
On to `O=C(c1nc2ccccc2nc1O)N1CCCCC1Cc1ccc(F)cc1` (racemic) [Compound 1-79, (+/−)-[2-(4-Fluorobenzyl)piperidin-1-yl](3-hydroxyquinoxalin-2-yl)methanone], for which the affinity, expressed as Kd, was 4.7 µM. Under `O=C(c1nc2ccccc2nc1O)N1CCCC[C@H]1Cc1cccc(Cl)c1` [Compound 7-8, (S)-(2-(3-chlorobenzyl)piperidin-1-yl)(3-hydroxyquinoxalin-2-yl)methanone] stands 1.2 µM.

The compound `O=C(c1nc2ccc(OC(F)(F)F)cc2nc1O)N1CCCC1Cc1cccc(Cl)c1` (racemic) [Compound 1-21, (+/−)-[2-(3-Chlorobenzyl)pyrrolidin-1-yl][3-hydroxy-6-(trifluoromethoxy)quinoxalin-2-yl]methanone] gave a dissociation constant (Kd) of 0.22 µM. `CN(Cc1ccccc1)C(=O)c1nc2ccccc2nc1O` [Compound 1-98] displayed a dissociation constant Kd of 28.4 µM. In turn, `O=C(c1nc2cc(Cl)c(Cl)cc2nc1O)N1CCC[C@H]1Cc1cc(Cl)cc(Cl)c1` [Compound 8-11] gave an equilibrium dissociation constant (Kd) of 0.004 µM. Under `O=C(c1nc2ccccc2nc1O)N1CCCCC1Cc1cccc(C(F)(F)F)c1` (racemic) [Compound 1-75, (+/−)-(3-Hydroxyquinoxalin-2-yl) {2-[3-(trifluoromethyl)benzyl]piperidin-1-yl}methanone] stands 0.98 µM; under `O=C(c1nc2ccccc2nc1O)N1CCCC[C@@H]1Cc1cccc(Cl)c1` [Compound 7-7, (R)-(2-(3-chlorobenzyl)piperidin-1-yl)(3-hydroxyquinoxalin-2-yl)methanone], 8.1 µM; under `O=C(c1nc2c(Cl)cccc2nc1O)N1CCCC1Cc1cccc(Cl)c1` (racemic) [Compound 1-8, (+/−)-(8-Chloro-3-hydroxyquinoxalin-2-yl)[2-(3-chlorobenzyl)pyrrolidin-1-yl]methanone], 0.11 µM.

`O=C(c1nc2cc(F)ccc2nc1O)N1CCCC1Cc1cccc(Cl)c1` (racemic) [Compound 1-3, (+/−)-[2-(3-Chlorobenzyl)pyrrolidin-1-yl](7-fluoro-3-hydroxyquinoxalin-2-yl)methanone] displayed an equilibrium dissociation constant (Kd) of 0.3 µM.

Take `COc1cc2nc(O)c(C(=O)N3CCCC3Cc3cccc(Cl)c3)nc2cc1OC` (racemic) [Compound 1-38, (+/−)-[2-(3-Chlorobenzyl)pyrrolidin-1-yl](3-hydroxy-6,7-dimethoxyquinoxalin-2-yl)methanone]: the Kd was 22.5 µM. Under `COc1ccc(CC2CCCCN2C(=O)c2nc3ccccc3nc2O)cc1` (racemic) [Compound 1-80, (+/−)-(3-Hydroxyquinoxalin-2-yl)[2-(4-methoxybenzyl)piperidin-1-yl]methanone] stands 4.76 µM; under `CN(CCc1ccccc1)C(=O)c1nc2ccccc2nc1O` [Compound 1-139], 12.7 µM; under `O=C(c1nc2ccccc2nc1O)N1CCCCCC1Cc1ccc(Cl)cc1` (racemic) [Compound 1-93, (+/−)-[2-(4-Chlorobenzyl)azepan-1-yl](3-hydroxyquinoxalin-2-yl)methanone], 9 µM.

Regarding `COc1ccccc1CC1CCCCN1C(=O)c1nc2ccccc2nc1O` (racemic) [Compound 1-73, (+/−)-(3-Hydroxyquinoxalin-2-yl)[2-(2-methoxybenzyl)piperidin-1-yl]methanone], binding was characterised by a dissociation constant (Kd) of 2.25 µM. Under `O=C(c1nc2ccc(C(F)(F)F)cc2nc1O)N1CCCC1Cc1cccc(Cl)c1` (racemic) [Compound 1-39, (+/−)-[2-(3-Chlorobenzyl)pyrrolidin-1-yl][3-hydroxy-6-(trifluoromethyl)quinoxalin-2-yl]methanone] stands 0.2 µM; under `O=C(c1nc2cc(Br)ccc2nc1O)N1CCCC1Cc1cccc(Cl)c1` (racemic) [Compound 1-37, (+/−)-(7-Bromo-3-hydroxyquinoxalin-2-yl)[2-(3-chlorobenzyl)pyrrolidin-1-yl]methanone], 0.85 µM; under `O=C(c1nc2ccccc2nc1O)N1CCCC1Cc1ccccc1Cl` (stereo not shown) [Compound 1-115], 1.8 µM. Under `O=C(c1nc2cc(SC(F)(F)F)ccc2nc1O)N1CCCC1Cc1cccc(Cl)c1` (racemic) [Compound 1-22, (+/−)-[2-(3-Chlorobenzyl)pyrrolidin-1-yl][3-hydroxy-7-(trifluoromethylthio]quinoxalin-2-yl)methanone] stands 0.024 µM. As for `O=C(c1nc2ccc(S(=O)(=O)C(F)(F)F)cc2nc1O)N1CCCC1Cc1cccc(Cl)c1` (racemic) [Compound 1-25, (+/−)-[2-(3-Chlorobenzyl)pyrrolidin-1-yl][3-hydroxy-6-(trifluoromethylsulfonyl)quinoxalin-2-yl]methanone], the figure is 0.1 µM. The compound `N#Cc1ccc2nc(C(=O)N3CCCC3Cc3cccc(Cl)c3)c(O)nc2c1` (racemic) [Compound 1-31, (+/−)-2-[2-(3-Chlorobenzyl)pyrrolidine-1-carbonyl]-3-hydroxyquinoxaline-6-carbonitrile] yielded a dissociation constant (Kd) of 0.5 µM.

Take `O=C(c1nc2ccccc2nc1O)N1CCCC1Cc1c(F)cccc1Cl` (racemic) [Compound 1-52, (+/−)-[2-(2-Chloro-6-fluorobenzyl)pyrrolidin-1-yl](3-hydroxyquinoxalin-2-yl)methanone]: the affinity, expressed as Kd, was 5.68 µM.

`O=C(c1nc2cccc(C(F)(F)F)c2nc1O)N1CCCC1Cc1cccc(Cl)c1` (racemic) [Compound 1-30, (+/−)-[2-(3-Chlorobenzyl)pyrrolidin-1-yl][3-hydroxy-5-(trifluoromethyl)quinoxalin-2-yl]methanone] yielded a Kd of 0.002 µM. Under `O=C(c1nc2cc(Cl)c(Cl)cc2nc1O)N1CCCC1Cc1cccc(Cl)c1` (racemic) [Compound 1-13, (+/−)-[2-(3-Chlorobenzyl)pyrrolidin-1-yl](6,7-dichloro-3-hydroxyquinoxalin-2-yl)methanone] stands 0.063 µM; under `O=C(c1nc2cc(F)cc(F)c2nc1O)N1CCC[C@H]1Cc1cc(Cl)cc(Cl)c1` [9-16, (S)-(2-(3,5-dichlorobenzyl)pyrrolidin-1-yl)(5,7-difluoro-3-hydroxyquinoxalin-2-yl)methanone], 0.007 µM; under `COc1cccc(CC2CCCN(C(=O)c3nc4ccccc4nc3O)C2)c1` (racemic) [Compound 1-85, (+/−)-(3-Hydroxyquinoxalin-2-yl)[3-(3-methoxybenzyl)piperidin-1-yl]methanone], 11 µM. `CC(C)CN(C)C(=O)c1nc2ccccc2nc1O` [Compound 1-140] yielded an equilibrium dissociation constant (Kd) of 23.2 µM.

`O=C(c1nc2ccccc2nc1O)N1CCC[C@H]1CNc1ccccc1` [Compound 1-65, (S)-(3-Hydroxyquinoxalin-2-yl){2-[(phenylamino)methyl]pyrrolidin-1-yl}methanone]: the Kd came to 22.7 µM. The compound `O=C(c1nc2ccccc2nc1O)N1CCCCC1Cc1cccc(F)c1` (racemic) [Compound 1-74, (+/−)-[2-(3-Fluorobenzyl)piperidin-1-yl](3-hydroxyquinoxalin-2-yl)methanone] gave a Kd of 4.4 µM. As to `CCC(c1ccccc1)C1CCCN1C(=O)c1nc2ccccc2nc1O` (racemic) [Compound 1-48, (+/−)-(3-Hydroxyquinoxalin-2-yl)[2-(1-phenylpropyl)pyrrolidin-1-yl]methanone], the affinity, expressed as Kd, was 11.9 µM.

The compound `O=C(c1nc2ccccc2nc1O)N1CCCC1Cc1ccc(F)cc1` (stereo not shown) [Compound 1-158] showed a Kd of 2 µM. As for `O=C(c1nc2ccc(I)cc2nc1O)N1CCCC1Cc1cccc(Cl)c1` (racemic) [Compound 1-19, (+/−)-[2-(3-Chlorobenzyl)pyrrolidin-1-yl](3-hydroxy-6-iodoquinoxalin-2-yl)methanone], the figure is 0.46 µM; as for `O=C(c1nc2ccccc2nc1O)N1CCCCC1Cc1ccccc1` (racemic) [Compound 1-72, (+/−)-(2-Benzylpiperidin-1-yl)(3-hydroxyquinoxalin-2-yl)methanone], 14.2 µM.

As to `O=C(c1nc2ccccc2nc1O)N1CCCC(Cc2ccc(F)cc2)C1` (racemic) [Compound 1-88, (+/−)-[3-(4-Fluorobenzyl)piperidin-1-yl](3-hydroxyquinoxalin-2-yl)methanone], binding was put at a Kd of 5.5 µM. As for `COc1ccc(CCN(C)C(=O)c2nc3ccccc3nc2O)cc1OC` [Compound 1-141], the figure is 26.1 µM; as for `CN(CCc1cccc(Cl)c1)C(=O)c1nc2ccccc2nc1O` [Compound 1-156], 2.7 µM; as for `O=C(c1nc2ccc(F)cc2nc1O)N1CCCC1Cc1cccc(Cl)c1` (racemic) [Compound 1-4, (+/−)-[2-(3-Chlorobenzyl)pyrrolidin-1-yl](6-fluoro-3-hydroxyquinoxalin-2-yl)methanone], 0.18 µM. The compound `O=C(c1nc2ncccc2nc1O)N1CCCC1Cc1cccc(Cl)c1` (racemic) [Compound 1-32, (+/−)-[2-(3-Chlorobenzyl)pyrrolidin-1-yl](2-hydroxypyrido[2,3-b]pyrazin-3-yl)methanone] gave a Kd of 0.3 µM.

As usually defined, the Kd is the constant that tells how readily two partners part at equilibrium. Read a low Kd as a tighter complex.
